Experimental data: patent publication US11993591B2, “Chromen-4-one derivatives for the treatment and prophylaxis of hepatitis B virus disease” (Hoffmann-La Roche Inc., priority 2018, dated 2024)
pIC50: −log10 of the molar value.

tested on: HBV cccDNA (HBeAg level) in HepDES19 cells; test: Engineered HepDES19 primary screen assay (HBeAg as surrogate marker for cccDNA); assay type: cell-based; conditions: Hepatitis B virus, HepDES19, 120 h
Text: The assay was employed to screen for novel cccDNA inhibitors. HepDES19 is a cccDNA-producing cell line. In this cell line, HBeAg in the cell culture supernatant as surrogate marker, as HBeAg production depends on cccDNA level and activity. HepDES19 is an engineered cell line which contains a 1.1 unit length HBV genome, and pgRNA transcription from the transgene is controlled by Tetracycline (Tet). In the absence of Tet, pgRNA transcription will be induced, but HBV e antigen (HBeAg) could not be produced from this pgRNA due to very short leader sequence before the HBeAg start codon and the start codon is disrupted. Only after cccDNA is formed, the missing leader sequence and start codon mutation would be restored from the 3′-terminal redundancy of pgRNA, and then HBeAg could be synthesized. Therefore, HBeAg could be used as a surrogate marker for cccDNA (Zhou, T. et al., Antiviral Res. (2006), 72(2), 116-124; Guo, H. et al., J. Virol. (2007), 81(22), 12472-12484).
HepDES19 cells were seeded at 2×10^6 cells per T150 flask and cultured with the culture medium (Dulbecco's Modified Eagle Medium: Nutrient Mixture F-12 [DMEM-F12, Gibco Cat. 11320-82], 10% Fetal Bovine Serum [FBS, Clontech Cat. 631101], 0.1 mM Non-Essential Amino Acids Solution [NEAA, Gibco Cat. 11140-050], 50 μg/mL Penicillin-Streptomycin [PS, Invitrogen Cat. 15140-163], 500 μg/mL Geneticin [G418, Invitrogen Cat. 10131-027]) containing 3 μg/mL Tet (Sigma, Cat. 87128) for 5 days. Cells were then seeded at 4×10^6 cells per T150 in the same culture medium as described above in the absence of Tet for 8 days. Cells were then harvested and frozen at density of 2×10^6 cells per mL. For compound testing, the frozen cells were thawed and seeded into 96-well plates at a density of 6×10^4 cells per well. At 24 hours after seeding, half log serial dilutions of compounds made with Dimethyl sulfoxide (DMSO, Sigma, Cat. D2650) were further diluted with the same culture medium as described above before they were added to the cells to reach desired final compound concentrations and 1% DMSO concentration. Plates were then incubated at 37° C. for another 5 days before measurement of HBeAg level and cell viability. Intracellular HBeAg level were measured with enzyme-linked immunosorbent assay (ELISA) kit (Shanghai Kehua Diagnostic Medical Products Co., Ltd). Cell viability was assessed using Cell Counting Kit-8 (Donjindo, Cat. CK04-20). IC50 values were derived from the dose-response curve using 4 parameter logistic curve fit method.
The compounds of the present invention were tested for their capacity to inhibit extracellular HBeAg level as described herein.

Row | SMILES | pIC50
1 | O=c1cc(-n2ccc(OCc3ccccc3)cc2=O)oc2c(Cl)cccc12 [Example 59, 4-(benzyloxy)-1-(8-chloro-4-oxo-chromen-2-yl)pyridin-2(1H)-one] | 4.61
2 | O=C(O)C1CC(OCCOc2ccc(CNc3cc(=O)c4cccc(Cl)c4o3)cc2)C1 (centres unmarked) [Example 60, 3-(2-(4-(((8-chloro-4-oxo-chromen-2-yl)amino)methyl)phenoxy)ethoxy)cyclobutanecarboxylic Acid] | 4.51
3 | O=c1c(I)c(N2CCC(O)CC2)oc2c(Cl)cccc12 [Example 61, 8-chloro-2-(4-hydroxypiperidin-1-yl)-3-iodo-chromen-4-one] | 4.51
4 | CC(C)(C)OC(=O)N1CC2(C1)CN(c1cc(=O)c3cccc(Cl)c3o1)C2 [Example 62, Tert-butyl 6-(8-chloro-4-oxo-chromen-2-yl)-2,6-diazaspiro[3.3]heptane-2-carboxylate] | 4.48
5 | COC(=O)c1cccc(C(=O)N2CC3(C2)CN(c2cc(=O)c4cccc(Cl)c4o2)C3)c1 [Example 63, Methyl 3-[6-(8-chloro-4-oxo-chromen-2-yl)-2,6-diazaspiro[3.3]heptane-2-carbonyl]benzoate] | 4.50
6 | O=C(O)C1CC(OCCOc2ccc3c(c2)CN(c2cc(=O)c4cccc(Cl)c4o2)C3=O)C1 (centres unmarked) [Example 64, 3-(2-((2-(8-chloro-4-oxo-chromen-2-yl)-1-oxoisoindolin-5-yl)oxy)ethoxy)cyclobutanecarboxylic Acid] | 4.44
7 | COc1ccc2c(c1)C(=O)N(c1cc(=O)c3cccc(Cl)c3o1)CC2 [Example 65, 2-(8-chloro-4-oxo-chromen-2-yl)-7-methoxy-3,4-dihydroisoquinolin-1-one] | 4.42

tested on: HBV (extracellular HBsAg) in primary human hepatocytes; test: Cryopreserved Primary Human Hepatocytes (PHH) HBV infection assay; assay type: cell-based; conditions: Hepatitis B virus, Hepatocyte, 216 h; extracellular HBsAg (CLIA), HBV-infected cryopreserved PHH, 9 days post-compound treatment
Description: This assay is used to confirm the anti-HBV effect of the compounds in HBV PHH infection assay. Cryopreserved PHH (BioreclamationIVT, Lot YJM) was thawed at 37° C. and gently transferred into pre-warmed InVitroGRO HT medium (BioreclamationIVT, Cat. S03317).
The mixture was centrifuged at 70 relative centrifugal force (RCF) for 3 mins at RT, and the supernatant was discarded. Pre-warmed InVitroGRO CP medium (BioreclamationIVT, Cat #S03316) was added to the cell pellet to gently re-suspend cells. The cells were seeded at the density of 5.8×10^4 cells per well to collagen I coated 96-well plate (Gibco, Cat. A1142803) with the InVitroGRO CP medium. All plates were incubated at 37° C. with 5% CO2 and 85% humidity.
At 20 hours after plating, the medium was changed to PHH culture medium (Dulbecco's Modified Eagle Medium (DMEM)/F12 (1:1) (Gibco, Cat. 11320-033), 10% fetal bovine serum (Gibco Cat. 10099141), 100 U/mL penicillin, 100 μg/mL streptomycin (Gibco, Cat. 151401-122), […] (Invitrogen Cat. PHG0311L), 20 ng/mL dexamethasone (Sigma, Cat. D4902) and 250 ng/mL human recombinant insulin (Gibco, Cat. 12585-014)). And the cells were incubated at 37° C. with 5% CO2 and 85% humidity for 4 hours. The medium was then changed to pre-warmed PHH culture medium containing 4% polyethylene glycol (PEG) MW8000 (Sigma, Cat. P1458-50ML) and 1% DMSO (Sigma, Cat. D2650). 5.8×10^6 genomic equivalents of HBV were added into the medium.
At 24 hours post-infection, the cells were gently washed with PBS and refreshed with PHH culture medium supplemented with 1% DMSO, and 0.25 mg/mL Matrix gel (Corning, Cat. 356237) at 200 μL per well. All plates were immediately placed in at 37° C. CO2 incubator. 24 hours later, serial dilutions of compounds made with DMSO were further diluted with the same culture medium (PHH culture medium supplemented with 1% DMSO and 0.25 mg/mL Matrix gel as described above) before they were added to the cells to reach desired final compound concentrations and 1% DMSO concentration. The medium containing the compounds were refreshed every three days.
At 9 days post-compound treatment, extracellular HBsAg level were measured with Chemiluminescence Immuno Assay (CLIA) kit (Autobio, HBsAg Quantitative CLIA). Extracellular HBV DNA was extracted by MagNA Pure 96 system (Roche) and then determined by quantitative PCR with the following primers and probe: […]
HBsAg IC50 and HBV DNA IC50 values were derived from the dose-response curve using 4 parameter logistic curve fit method.

Row | SMILES | pIC50
8 | O=C(Nc1ccc(OCCOC2CC(C(=O)O)C2)cc1F)c1cc(=O)c2cccc(Cl)c2o1 (centres unmarked) [Example 1, 3-(2-(4-(8-chloro-4-oxo-chromene-2-carboxamido)-3-fluorophenoxy)ethoxy)cyclobutanecarboxylic Acid] | 5.54
9 | Cc1cc(OCCOC2CC(C(=O)O)C2)ccc1NC(=O)c1cc(=O)c2cccc(Cl)c2o1 (centres unmarked) [Example 2, 3-(2-(4-(8-chloro-4-oxo-chromene-2-carboxamido)-3-methylphenoxy)ethoxy)cyclobutanecarboxylic Acid] | 5.36
10 | O=C(Nc1ccc(OCCOC2CC(C(=O)O)C2)cc1C(F)(F)F)c1cc(=O)c2cccc(Cl)c2o1 (centres unmarked) [Example 5, 3-(2-(4-(8-chloro-4-oxo-chromene-2-carboxamido)-3-(trifluoromethyl)phenoxy)ethoxy)cyclobutanecarboxylic Acid] | 5.13
11 | O=C(Nc1nnc(C(F)(F)F)s1)c1cc(=O)c2cccc(Cl)c2o1 [Example 6, 8-chloro-4-oxo-N-(5-(trifluoromethyl)-1,3,4-thiadiazol-2-yl)-chromene-2-carboxamide] | 5.02
12 | O=C(NCc1ccc(Cl)cc1Cl)c1cc(=O)c2cccc(Cl)c2o1 [Example 9, 8-chloro-N-(2,4-dichlorobenzyl)-4-oxo-chromene-2-carboxamide] | 4.85
13 | Cc1cc(Br)cnc1NC(=O)c1cc(=O)c2cccc(Cl)c2o1 [Example 10, N-(5-bromo-3-methylpyridin-2-yl)-8-chloro-4-oxo-chromene-2-carboxamide] | 4.61
14 | O=C(Nc1ccc(Cl)cc1C(F)(F)F)c1cc(=O)c2cccc(Cl)c2o1 [Example 12, 8-chloro-N-(4-chloro-2-(trifluoromethyl)phenyl)-4-oxo-chromene-2-carboxamide] | 4.47
15 | Cc1cc(Cl)ccc1NC(=O)c1cc(=O)c2cc(Cl)cc(Cl)c2o1 [Example 13, 6,8-dichloro-N-(4-chloro-2-methylphenyl)-4-oxo-chromene-2-carboxamide] | 4.44
16 | COc1ccc2c(c1)CCN(C(=O)c1cc(=O)c3cccc(Cl)c3o1)C2 [Example 14, 8-Chloro-2-(6-methoxy-3,4-dihydro-1H-isoquinoline-2-carbonyl)chromen-4-one] | 4.44
17 | Cc1ccccc1NC(=O)c1cc(=O)c2cccc(Cl)c2o1 [Example 15, 8-chloro-4-oxo-N-(o-tolyl)-chromene-2-carboxamide] | 4.43
